Read-outs that look alike come from different tables or passages of the source.
How the values were obtained:
[1] = Solubility test in biological media (FaSSIF, FeSSIF, SGF) and water, 37° C.; format: physicochemical; details: for Status (24 h) / solubility at 24 h / pH 24 hours: 37° C.; for Status (24 h): about 4 mg in 2 mL; for solubility at 24 h: salt forms converted to salt concentrations, read-out: Solubility (mg/mL) 24 hours; for pH 24 hours: supernatant; for pH 0 hour: initial
Description: Step 1: Preparation of Control Solutions (0.2 mg/mL, calculated by free base)
2 mg the crystal form B of the compound represented by formula (I) (or 2.4 mg the crystal form E of the compound represented by formula (II)) as a control was precisely weighed and placed into a 40 mL glass vial, and a diluent (10 mL) was precisely added. The reaction solution was subjected to ultrasonic treatment for 20 min to sufficiently dissolve, then cooled to room temperature and shaked well. Two control solutions (STD #1, STD #2) were formulated in accordance with this method.
Step 2: Preparation of Linear Solutions
The control solution STD #1 of the crystal form B of the compound represented by formula (I) was 1×, 10×, 100×, 1000× and 2000× (free base LOQ) diluted, and designated as the linear solutions L1, L2, L3, L4 and L5; the control solution STD #1 of the crystal form E of the compound represented by formula (II) was 1×, 10×, 100× and 1000× (methanesulfonate LOQ) diluted, and designated as the linear solutions L1, L2, L3, L4.
Step 3: Solubility Test of the crystal form B of the compound represented by formula (I), the crystal form G of the compound represented by formula (III) and the crystal form E of the compound represented by formula (II) in biological media and water
4 samples (about 4 mg) of each of the crystal form B of the compound represented by formula (I), the crystal form E of the compound represented by formula (II), and the crystal form G of the compound represented by formula (III) were added into 12 glass vials (4 mL), respectively, and then 2 mL different biological media (FaSSIF, FeSSIF, SGF) and water were added into each compound respectively, then mixed homogeneously to form a suspension. The suspension was detected for its initial pH value. A magnet was added into the suspension, and placed on a magnetic stirring heater for stirring (at a temperature of 37° C., in dark). After stirring for 24 h, a sample was taken. The taken sample was quickly centrifuged, and the residual solid was detected by XRPD. The supernatant was detected for its pH value and diluted with a diluent into appropriate multiple, then measured with HPLC for its concentration.
FaSSIF: 1. 0.042 g sodium hydroxide, 0.3438 g sodium dihydrogen phosphate and 0.6186 g sodium chloride were weighed, added into 90 mL purified water, and homogeneously mixed, then, the mixture was adjusted with 1 N hydrochloric acid or 1 N sodium hydroxide to pH=6.5, and diluted into a constant volume of 100 mL with purified water; 2. 50 mL of the buffer described above was taken, and 0.224 g commercially available powder (Biorelevant.com) of FaSSIF/FeSSIF/FaSSGF was added thereto, the mixture was stirred to dissolve, and diluted with purified water to a constant volume of 100 mL.
FeSSIF: 1. 0.404 g sodium hydroxide, 0.865 g glacial acetic acid, and 1.1874 g sodium chloride were weighed, added into 90 mL purified water, and homogeneously mixed, then, the mixture was adjusted with 1 N hydrochloric acid or 1 N sodium hydroxide to pH=5.0, and diluted with purified water to a constant volume of 100 mL, 2. 50 mL of the buffer described above was taken, and 1.12 g commercially available powder (Biorelevant.com) of FaSSIF/FeSSIF/FaSSGF was added thereto, the mixture was stirred to dissolve, and diluted with purified water to a constant volume of 100 mL.
FaSSGF (SGF): 1. 0.2 g sodium chloride was weighed, added into 90 mL purified water, and mixed homogeneously, the mixture was adjusted with 1 N hydrochloric acid to pH=1.8, and diluted with purified water to a constant volume of 100 mL, and stood at room temperature.

[2] = Stability of the crystal form on stirring as suspension in solvent (40° C., 2 days); format: physicochemical; details: stirring in acetone at 40° C.
Description: 30 mg of the compound represented by formula (I) was weighed and added into a glass flask, 400 μL acetonitrile-water (1:1) was added to form a suspension. A sample of the suspension was placed on a magnetic stirrer (40° C.) for a dark stirring experiment. The sample of the suspension was centrifuged after stirring at 40° C. for 2 days, and then the residual sample was dried in a vacuum drying oven (30° C.) overnight to give a crystal form A of the compound represented by formula (I). The XRPD pattern of the crystal form A of the compound represented by formula (I) is shown in FIG. 1, the DSC pattern is shown in FIG. 2, and the TGA pattern is shown in FIG. 3.
30 mg of the compound represented by formula (I) was weighed and added into a glass flask, and 400 μL ethyl acetate was added to form a suspension. A sample of the suspension was placed on a magnetic stirrer (40° C.) for dark stirring experiment. The sample of the suspension was centrifuged after stirring at 40° C. for 2 days, and then the residual sample was dried in a vacuum drying oven (30° C.) overnight. The crystal form was detected by XRPD to give a crystal form A of the compound represented by formula (I).
30 mg of the compound represented by formula (I) was weighed and added into a glass flask, and 400 μL methanol was added to form a suspension. A sample of the suspension was placed on a magnetic stirrer (40° C.) for dark stirring experiment. The sample of the suspension was centrifuged after stirring at 40° C. for 2 days, and then the residual sample was dried in a vacuum drying oven (30° C.) overnight to give a crystal form B of the compound represented by formula (I). The XRPD pattern of the crystal form B of the compound represented by formula (I) is shown in FIG. 4, the DSC pattern is shown in FIG. 5, and the TGA pattern is shown in FIG. 6.
50 mg of the compound represented by formula (I) was weighed and added into a 1.5 mL liquid vial, and 200 μL methanol was added thereto, the obtained mixture was homogeneously mixed under ultrasound. The dissolved sample was quickly centrifuged, and the supernatant was placed in a centrifuge tube, the mouth of the tube was packed with a pierced aluminum foil, and then the tube was placed in a fume cupboard for volatilization; the sample of the suspension was placed on a magnetic stirring heater (40° C.) for stirring (in dark), and quickly centrifuged after 2 days. The resultant solid was collected and dried at 30° C. in a vacuum drying oven overnight to give the crystal form C of the compound represented by formula (I). The XRPD pattern of the crystal form C of the compound represented by formula (I) is shown in FIG. 7, the DSC pattern is shown in FIG. 8, and the TGA pattern is shown in FIG. 9.
50 mg of the compound represented by formula (I) was weighed and added into a 1.5 mL liquid vial, and 200 μL ethanol was added thereto, and the obtained mixture was homogeneously mixed under ultrasound. The dissolved sample was quickly centrifuged, the supernatant was placed into a centrifuge tube, and the mouth of the tube was packed with a pierced aluminum foil, and placed in a fume cupboard for volatilization; the sample of the suspension was placed on a magnetic stirring heater (40° C.) for stirring (in dark), and quickly centrifuged after 2 days. The solid obtained as above was collected and dried at 30° C. in a vacuum drying oven overnight to give a crystal form D of the compound represented by formula (I). The XRPD pattern of the crystal form D of the compound represented by formula (I) is shown in FIG. 10, the DSC pattern is shown in FIG. 11, and the TGA pattern is shown in FIG. 12.
35 mg of the compound represented by formula (II) was weighed and added into a 1.5 mL liquid vial, and 400 μL methanol was added thereto, and the obtained mixture was homogeneously mixed under ultrasound. […]

[3] = biological target: T1, FGFR4 kinase (Homo sapiens, UniProt P22455); assay: In vitro enzyme activity test, Z'-LYTE Assay, FGFR4 enzymatic reaction; format: biochemical; details: 150 μM ATP, room temperature 60 min
T1 construct: purchased Life technology
Description: (§1) The enzyme activity was detected by Z′-LYTE® Assay with IC50 value of the compound used as an index for evaluating the inhibitory effect of the compound on FGFR4 kinases. The activity test was completed in Life technology.
(§2) The test compound was subjected to 3× gradient dilution, and the final concentrations included 10 concentrations from 10 μM to 0.5 nM, with two duplicates per concentration; the content of DMSO used in the detection reaction was 1%.
[…] The detection plate was Bar-coded Corning, low volume NBS, black 384-well plate, the reaction was implemented at room temperature for 60 min, and the reaction system was 10 μL.
(§3) 5 μL Development reagent B (1:64) was added into the kinase reaction solution to stop the reaction, and the reaction solution was incubated at 23° C. for 60 min, the plate was read with Envision instrument.
(§4) The data were converted to the phosphorylation rate and the inhibitory rate, and was subjected to curve fitting with Model 205 in XLFIT (iDBS) to give the IC50 data of the compound. If the bottom of the curve was not in the range of −20% to 20%, it was set as 0%; and if the top of the curve was not in the range of 70% to 130%, it was set as 100%.

[4] = biological target: T2, FGFR1 protein kinase (Homo sapiens, UniProt P11362); assay: In vitro enzyme activity test, Z'-LYTE Assay, FGFR1 enzymatic reaction; format: biochemical; details: 25 uM ATP, room temperature 60 min
T2 construct: purchased Life technology
Description: as §1, §2
1 nM FGFR1 protein kinase, 2 μM Tyr4 peptide, 25 uM ATP, 50 mM HEPES (pH 7.5), 10 mM MgCl2, 1 mM EGTA, 0.01% BRIJ-35, 2 mM MnCl2, and 1 mM DTT. The detection plate was Black Proxiplate 384-Plus plate (PerkinElmer), the reaction was implemented at room temperature for 60 min, and the reaction system was 10 μL.
as §3, §4

T2 sequence (P11362 22-822): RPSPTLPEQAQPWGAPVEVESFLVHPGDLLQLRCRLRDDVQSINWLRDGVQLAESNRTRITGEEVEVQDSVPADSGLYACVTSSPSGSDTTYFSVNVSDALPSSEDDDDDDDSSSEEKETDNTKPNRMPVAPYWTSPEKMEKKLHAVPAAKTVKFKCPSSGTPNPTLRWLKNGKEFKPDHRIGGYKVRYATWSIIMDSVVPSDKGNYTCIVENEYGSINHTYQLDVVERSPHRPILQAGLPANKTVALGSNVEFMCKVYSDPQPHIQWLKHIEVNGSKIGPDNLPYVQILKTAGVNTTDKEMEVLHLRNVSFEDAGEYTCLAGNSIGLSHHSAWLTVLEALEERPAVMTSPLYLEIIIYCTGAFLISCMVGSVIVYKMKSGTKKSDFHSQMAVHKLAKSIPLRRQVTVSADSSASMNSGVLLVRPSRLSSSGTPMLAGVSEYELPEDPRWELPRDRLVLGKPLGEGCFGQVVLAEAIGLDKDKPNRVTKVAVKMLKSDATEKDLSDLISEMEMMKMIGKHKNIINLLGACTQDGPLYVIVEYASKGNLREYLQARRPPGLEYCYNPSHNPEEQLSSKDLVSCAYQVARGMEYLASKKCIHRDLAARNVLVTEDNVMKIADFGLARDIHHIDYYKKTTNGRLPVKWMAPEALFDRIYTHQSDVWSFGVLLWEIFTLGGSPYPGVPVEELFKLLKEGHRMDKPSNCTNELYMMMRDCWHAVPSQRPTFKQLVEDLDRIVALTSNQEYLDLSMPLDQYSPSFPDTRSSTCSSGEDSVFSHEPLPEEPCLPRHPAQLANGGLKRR
T1 sequence (P22455 22-802): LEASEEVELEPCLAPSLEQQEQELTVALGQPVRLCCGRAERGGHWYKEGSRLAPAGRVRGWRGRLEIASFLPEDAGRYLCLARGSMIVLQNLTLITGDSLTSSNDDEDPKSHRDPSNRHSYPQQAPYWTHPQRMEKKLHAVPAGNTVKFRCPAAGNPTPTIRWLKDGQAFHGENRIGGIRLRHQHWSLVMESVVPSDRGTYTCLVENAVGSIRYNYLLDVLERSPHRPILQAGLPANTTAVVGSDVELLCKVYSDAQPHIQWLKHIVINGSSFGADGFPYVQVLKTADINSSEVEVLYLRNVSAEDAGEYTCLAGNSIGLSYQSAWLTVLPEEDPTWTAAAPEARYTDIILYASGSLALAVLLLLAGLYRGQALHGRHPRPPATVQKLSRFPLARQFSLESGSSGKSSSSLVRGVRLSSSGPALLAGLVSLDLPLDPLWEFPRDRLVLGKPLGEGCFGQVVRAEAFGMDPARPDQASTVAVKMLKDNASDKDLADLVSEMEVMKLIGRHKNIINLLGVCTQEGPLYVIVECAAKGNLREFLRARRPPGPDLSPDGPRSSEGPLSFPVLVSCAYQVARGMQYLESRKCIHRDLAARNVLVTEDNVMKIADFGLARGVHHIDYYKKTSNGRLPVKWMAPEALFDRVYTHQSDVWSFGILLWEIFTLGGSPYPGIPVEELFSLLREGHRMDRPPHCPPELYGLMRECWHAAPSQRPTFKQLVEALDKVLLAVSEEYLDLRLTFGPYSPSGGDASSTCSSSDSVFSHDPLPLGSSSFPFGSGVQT

With `C=CC(=O)N[C@H]1COC[C@H]1Nc1ncc(/C=C(\F)c2c(Cl)c(OC)cc(OC)c2Cl)cn1.O=S(=O)(O)O` the “Status (24 h)” value ([1]; FaSSIF) was “Suspension”, the “solubility in three types of biological media, conclusion in words” value ([1]; FaSSIF, FeSSIF, SGF) was “good solubility” and the “Status (24 h)” value ([1]; FeSSIF) was “Suspension”. The solubility at 24 h ([1]; SGF (FaSSGF), pH 1.8, simulated gastric fluid, thermodynamic from solid, SGF) was 0.045 mg/mL, the “Status (24 h)” value ([1]; SGF) was “Suspension” and the “Status (24 h)” value ([1]; Water) was “Suspension”. The solubility at 24 h ([1]; pH 5, thermodynamic from solid, FeSSIF) was 0.668 mg/mL, the solubility at 24 h ([1]; pH 6.5, thermodynamic from solid, FaSSIF) was 0.079 mg/mL and the “pH 24 hours” value ([1]; FaSSIF) was 6.38. For the same molecule, the “pH 24 hours” value ([1]; FeSSIF) was 4.99, the “pH 24 hours” value ([1]; SGF) was 2.14 and the “pH 24 hours” value ([1]; Water) was 2.47. For the same molecule, the “pH 0 hour” value ([1]; suspension in FaSSIF) was 6.54, the “pH 0 hour” value ([1]; suspension in FeSSIF) was 4.87 and the “pH 0 hour” value ([1]; suspension in SGF) was 2.03. The “pH 0 hour” value ([1]; suspension in Water) was 2.34, the solubility at 24 h ([1]; thermodynamic from solid, Water) was 0.028 mg/mL and the “stability in the acetone solution” value [2] was “substantially high stability”.

For `C=CC(=O)N[C@H]1COC[C@H]1Nc1ncc(/C=C(\F)c2c(Cl)c(OC)cc(OC)c2Cl)cn1` [Compound represented by formula (I)], the IC50 [3] was 17 nM and the IC50 [4] was 1460 nM.
